Results taken from patent publication US7858630B2, “D3 and 5-HT2A receptor modulators” (Hoffmann-La Roche Inc., priority 2008, dated 2010).

Tests used:
[1] = molecular target: T1, human dopamine D2 receptor (Homo sapiens, UniProt P14416); test: Radioligand binding ([3H]-spiperone) to membranes of HEK-293 EBNA cells expressing human D2 receptor; conditions: human D2, 0.7 nM [3H]-spiperone, HEK-293 EBNA membranes, 1 h at RT
T1 construct: expressed in transfected cells; host or cells: HEK-293 EBNA cells, transient transfection; membrane preparation
T1 sequence (P14416 whole entry): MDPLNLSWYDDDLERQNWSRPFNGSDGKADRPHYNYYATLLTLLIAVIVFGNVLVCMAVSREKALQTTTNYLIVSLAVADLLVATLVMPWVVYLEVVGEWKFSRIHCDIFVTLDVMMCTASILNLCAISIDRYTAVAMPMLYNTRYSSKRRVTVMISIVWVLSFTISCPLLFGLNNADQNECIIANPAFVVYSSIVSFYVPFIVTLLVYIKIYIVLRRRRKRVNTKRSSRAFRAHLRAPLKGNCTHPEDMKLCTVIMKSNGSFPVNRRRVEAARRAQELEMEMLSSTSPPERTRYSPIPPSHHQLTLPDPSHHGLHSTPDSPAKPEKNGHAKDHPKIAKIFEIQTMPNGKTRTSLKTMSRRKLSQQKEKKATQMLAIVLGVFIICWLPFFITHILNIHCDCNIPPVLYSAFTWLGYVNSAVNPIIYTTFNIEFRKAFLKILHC
How it was run: (§1)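 Membranes from HEK-293 EBNA cells transiently transfected with the receptor were incubated 1 h at RT with ten test concentrations (10 μM–0.1 nM) and ~0.7 nM [3H]-spiperone (D2), 0.5 nM [3H]-spiperone (D3) or 1.1 nM [3H]-ketanserin (5-HT2A). Nonspecific binding was set with 10 μM spiperone, bound radioactivity was read by filtration and scintillation, and Ki was taken from IC50 via Cheng-Prusoff.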

[2] = molecular target: T2, human dopamine D3 receptor (Homo sapiens, UniProt P35462); test: Radioligand binding ([3H]-spiperone) to membranes of HEK-293 EBNA cells expressing human D3 receptor; conditions: human D3, 0.5 nM [3H]-spiperone, HEK-293 EBNA membranes, 1 h at RT
T2 construct: expressed in transfected cells; host or cells: HEK-293 EBNA cells, transient transfection; membrane preparation
T2 sequence (P35462 whole entry): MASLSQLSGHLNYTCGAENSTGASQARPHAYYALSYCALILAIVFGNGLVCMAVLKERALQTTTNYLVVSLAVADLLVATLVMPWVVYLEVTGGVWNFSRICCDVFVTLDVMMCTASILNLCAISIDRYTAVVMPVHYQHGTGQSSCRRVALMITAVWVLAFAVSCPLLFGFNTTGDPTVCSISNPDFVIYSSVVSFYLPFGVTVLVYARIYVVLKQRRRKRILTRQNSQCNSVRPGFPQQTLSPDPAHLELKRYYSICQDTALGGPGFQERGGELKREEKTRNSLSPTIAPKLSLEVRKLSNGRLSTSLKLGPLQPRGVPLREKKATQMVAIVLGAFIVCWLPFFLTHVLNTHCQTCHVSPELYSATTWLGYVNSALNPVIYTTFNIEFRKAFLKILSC
How it was run: as §1

[3] = molecular target: T3, human serotonin 5-HT2A receptor (Homo sapiens, UniProt P28223); test: Radioligand binding ([3H]-ketanserin) to membranes of HEK-293 EBNA cells expressing human 5-HT2A receptor; conditions: 1.1 nM [3H]-ketanserin, HEK-293 EBNA membranes, 1 h at RT
T3 construct: expressed in transfected cells; host or cells: HEK-293 EBNA cells, transient transfection; membrane preparation
T3 sequence (P28223 whole entry): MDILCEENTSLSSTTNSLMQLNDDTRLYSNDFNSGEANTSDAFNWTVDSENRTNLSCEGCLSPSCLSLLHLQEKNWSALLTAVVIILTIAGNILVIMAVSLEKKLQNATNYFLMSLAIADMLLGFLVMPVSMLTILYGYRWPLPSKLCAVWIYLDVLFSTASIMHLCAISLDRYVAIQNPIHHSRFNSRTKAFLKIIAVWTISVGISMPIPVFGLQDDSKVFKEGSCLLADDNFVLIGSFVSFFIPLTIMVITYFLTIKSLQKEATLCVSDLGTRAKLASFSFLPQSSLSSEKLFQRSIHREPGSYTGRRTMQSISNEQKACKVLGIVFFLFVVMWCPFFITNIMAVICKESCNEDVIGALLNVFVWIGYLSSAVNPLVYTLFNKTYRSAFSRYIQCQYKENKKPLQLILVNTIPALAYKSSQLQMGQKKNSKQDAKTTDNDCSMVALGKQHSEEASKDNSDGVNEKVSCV
How it was run: as §1

SMILES | Ki [1] | Ki [2] | Ki [3]
CC(C)(O)CC(=O)N[C@H]1CC[C@H](CCN2CCN(c3noc4cc(F)c(F)cc34)CC2)CC1 [Example 64, N-trans-(4-{2-[4-(5,6-Difluoro-benzo[d]isoxazol-3-yl)-piperazin-1-yl]-ethyl}-cyclohexyl)-3-hydroxy-3-methyl-butyramide] | 0.598 µM | 0.0101 µM | 0.0118 µM
CCS(=O)(=O)N[C@H]1CC[C@H](CCN2CCN(c3noc4cc(F)c(F)cc34)CC2)CC1 [Example 68, Ethanesulfonic acid N-trans-(4-{2-[4-(5,6-difluoro-benzo[d]isoxazol-3-yl)-piperazin-1-yl]-ethyl}-cyclohexyl)-amide] | 0.641 µM | 0.0164 µM | 0.0178 µM
CCC(=O)N[C@H]1CC[C@H](CCN2CCN(c3noc4cc(Cl)c(F)cc34)CC2)CC1 [Example 70, N-trans-(4-{2-{4-(6-Chloro-5-fluoro-benzo[d]isoxazol-3-yl)-piperazin-1-yl]-ethyl}-cyclohexyl)-propionamide] | 0.852 µM | 0.00715 µM | 0.0681 µM
COCCC(=O)N[C@H]1CC[C@H](CCN2CCN(c3noc4cc(Cl)c(F)cc34)CC2)CC1 [Example 71, N-trans-(4-{2-[4-(6-Chloro-5-fluoro-benzo[d]isoxazol-3-yl)-piperazin-1-yl]-ethyl}-cyclohexyl)-3-methoxy-propionamide] | 1.43 µM | 0.0201 µM | 0.0892 µM
CC(=O)N[C@H]1CC[C@H](CCN2CCN(c3noc4cc(F)c(Cl)cc34)CC2)CC1 [Example 73, N-trans-(4-{2-[4-(5-Chloro-6-fluoro-benzo[d]isoxazol-3-yl)-piperazin-1-yl]-ethyl}-cyclohexyl)-acetamide] | 0.559 µM | 0.00974 µM | 0.0168 µM
COCCC(=O)N[C@H]1CC[C@H](CCN2CCN(c3noc4cc(F)c(Cl)cc34)CC2)CC1 [Example 74, N-trans-(4-{2-[4-(5-Chloro-6-fluoro-benzo[d]isoxazol-3-yl)-piperazin-1-yl]-ethyl}-cyclohexyl)-3-methoxy-propionamide] | 0.26 µM | 0.0101 µM | 0.0122 µM
O=C(CC1CC1)N[C@H]1CC[C@H](CCN2CCN(c3noc4cc(F)c(Cl)cc34)CC2)CC1 [Example 75, N-trans-(4-{2-[4-(5-Chloro-6-fluoro-benzo[d]isoxazol-3-yl)-piperazin-1-yl]-ethyl}-cyclohexyl)-2-cyclopropyl-acetamide] | 1.5 µM | 0.00165 µM | 0.00592 µM
O=C(CC1COCCO1)N[C@H]1CC[C@H](CCN2CCN(c3noc4cc(F)c(Cl)cc34)CC2)CC1 (stereo partly drawn) [Example 76, N-trans-(4-{2-[4-(5-Chloro-6-fluoro-benzo[d]isoxazol-3-yl)-piperazin-1-yl]-ethyl}-cyclohexyl)-2-[1,4]dioxan-2-yl-acetamide] | 0.632 µM | 0.0199 µM | 0.0204 µM
O=C(CC1OCCCO1)N[C@H]1CC[C@H](CCN2CCN(c3noc4cc(F)c(Cl)cc34)CC2)CC1 [Example 77, N-trans-(4-{2-[4-(5-Chloro-6-fluoro-benzo[d]isoxazol-3-yl)-piperazin-1-yl]-ethyl}-cyclohexyl)-2-[1,3]dioxan-2-yl-acetamide] | 2.3 µM | 0.00606 µM | 0.00226 µM
COC(CC(=O)N[C@H]1CC[C@H](CCN2CCN(c3noc4cc(F)c(Cl)cc34)CC2)CC1)OC [Example 78, N-trans-(4-{2-[4-(5-Chloro-6-fluoro-benzo[d]isoxazol-3-yl)-piperazin-1-yl]-ethyl}-cyclohexyl)-3,3-dimethoxy-propionamide] | 1.31 µM | 0.00626 µM | 0.00505 µM
O=C(C[C@H]1C[C@H](CO)C1)N[C@H]1CC[C@H](CCN2CCN(c3noc4cc(F)c(Cl)cc34)CC2)CC1 [Example 79, N-trans-(4-{2-[4-(5-Chloro-6-fluoro-benzo[d]isoxazol-3-yl)-piperazin-1-yl]-ethyl}-cyclohexyl)-2-trans-(3-hydroxymethyl-cyclobutyl)-acetamide] | 6.87 µM | 0.00547 µM | 0.00248 µM
COC[C@H]1C[C@H](CC(=O)N[C@H]2CC[C@H](CCN3CCN(c4noc5cc(F)c(Cl)cc45)CC3)CC2)C1 [Example 80, N-trans-(4-{2-[4-(5-Chloro-6-fluoro-benzo[d]isoxazol-3-yl)-piperazin-1-yl]-ethyl}-cyclohexyl)-2-trans-(3-methoxymethyl-cyclobutyl)-acetamide] | 11.7 µM | 0.00642 µM | 0.00298 µM
CSCCC(=O)N[C@H]1CC[C@H](CCN2CCN(c3noc4cc(F)c(Cl)cc34)CC2)CC1 [Example 81, N-trans-(4-{2-[4-(5-Chloro-6-fluoro-benzo[d]isoxazol-3-yl)-piperazin-1-yl]-ethyl}-cyclohexyl)-3-methylsulfanyl-propionamide] | 11.1 µM | 0.00438 µM | 0.00528 µM

Continued, values first:

Ki [1] | Ki [2] | Ki [3] | SMILES
0.38 µM | 0.00583 µM | 0.012 µM | CC(=O)N[C@H]1CC[C@H](CCN2CCN(c3noc4cc(F)c(F)cc34)CC2)CC1 [Example 56, N-trans-(4-{2-[4-(5,6-Difluoro-benzo[d]isoxazol-3-yl)-piperazin-1-yl]-ethyl}-cyclohexyl)-acetamide]
0.396 µM | 0.00618 µM | 0.0131 µM | COCCC(=O)N[C@H]1CC[C@H](CCN2CCN(c3noc4cc(F)c(F)cc34)CC2)CC1 [Example 57, N-trans-(4-{2-[4-(5,6-Difluoro-benzo[d]isoxazol-3-yl)-piperazin-1-yl]-ethyl}-cyclohexyl)-3-methoxy-propionamide]
11.3 µM | 0.0144 µM | 0.00759 µM | CO[C@H]1CC[C@H](CC(=O)N[C@H]2CC[C@H](CCN3CCN(c4noc5cc(F)c(F)cc45)CC3)CC2)CC1 [Example 58, N-trans-(4-{2-[4-(5,6-Difluoro-benzo[d]isoxazol-3-yl)-piperazin-1-yl]-ethyl}-cyclohexyl)-2-trans-(4-methoxy-cyclohexyl)-acetamide]
0.389 µM | 0.00988 µM | 0.0148 µM | CCC(=O)N[C@H]1CC[C@H](CCN2CCN(c3noc4cc(F)c(F)cc34)CC2)CC1 [Example 59, N-trans-(4-{2-[4-(5,6-Difluoro-benzo[d]isoxazol-3-yl)-piperazin-1-yl]-ethyl}-cyclohexyl)-propionamide]
0.878 µM | 0.0204 µM | 0.0095 µM | COCC(=O)N[C@H]1CC[C@H](CCN2CCN(c3noc4cc(F)c(F)cc34)CC2)CC1 [Example 60, N-trans-(4-{2-[4-(5,6-Difluoro-benzo[d]isoxazol-3-yl)-piperazin-1-yl]-ethyl}-cyclohexyl)-2-methoxy-acetamide]
0.811 µM | 0.0101 µM | 0.00845 µM | O=C(CC1(O)CCOCC1)N[C@H]1CC[C@H](CCN2CCN(c3noc4cc(F)c(F)cc34)CC2)CC1 [Example 61, N-trans-(4-{2-[4-(5,6-Difluoro-benzo[d]isoxazol-3-yl)-piperazin-1-yl]-ethyl}-cyclohexyl)-2-(4-hydroxy-tetrahydro-pyran-4-yl)-acetamide]
0.352 µM | 0.0134 µM | 0.00992 µM | COC1(CC(=O)N[C@H]2CC[C@H](CCN3CCN(c4noc5cc(F)c(F)cc45)CC3)CC2)CCOCC1 [Example 62, N-trans-(4-{2-[4-(5,6-Difluoro-benzo[d]isoxazol-3-yl)-piperazin-1-yl]-ethyl}-cyclohexyl)-2-(4-methoxy-tetrahydro-pyran-4-yl)-acetamide]
9.71 µM | 0.00713 µM | 0.00688 µM | O=C(CC1CCOCC1)N[C@H]1CC[C@H](CCN2CCN(c3noc4cc(F)c(F)cc34)CC2)CC1 [Example 63, N-trans-(4-{2-[4-(5,6-Difluoro-benzo[d]isoxazol-3-yl)-piperazin-1-yl]-ethyl}-cyclohexyl)-2-(tetrahydro-pyran-4-yl)-acetamide]
2.93 µM | 0.0263 µM | 0.00694 µM | COC1CCC(C(=O)N[C@H]2CC[C@H](CCN3CCN(c4noc5cc(F)c(F)cc45)CC3)CC2)CC1 (stereo partly drawn) [Example 66, 4-Methoxy-cyclohexanecarboxylic acid N-trans(4-{2-[4-(5,6-difluoro-benzo[d]isoxazol-3-yl)-piperazin-1-yl]-ethyl}-cyclohexyl)-amide]
2.67 µM | 0.03 µM | 0.00772 µM | O=C(N[C@H]1CC[C@H](CCN2CCN(c3noc4cc(F)c(F)cc34)CC2)CC1)C1CCOCC1 [Example 67, Tetrahydro-pyran-4-carboxylic acid N-trans-(4-{2-[4-(5,6-difluoro-benzo[d]isoxazol-3-yl)-piperazin-1-yl]-ethyl}-cyclohexyl)-amide]
0.862 µM | 0.0131 µM | 0.00633 µM | O=C(CC1OCCCO1)N[C@H]1CC[C@H](CCN2CCN(c3noc4cc(F)c(F)cc34)CC2)CC1 [Example 69, N-trans-(4-{2-[4-(5,6-Difluoro-benzo[d]isoxazol-3-yl)-piperazin-1-yl]-ethyl}-cyclohexyl)-2-[1,3]dioxan-2-yl-acetamide]
11.3 µM | 0.0243 µM | 0.0366 µM | O=C(CC1CCOCC1)N[C@H]1CC[C@H](CCN2CCN(c3noc4cc(Cl)c(F)cc34)CC2)CC1 [Example 72, N-trans-(4-{2-[4-(6-Chloro-5-fluoro-benzo[d]isoxazol-3-yl)-piperazin-1-yl]-ethyl}-cyclohexyl)-2-(tetrahydro-pyran-4-yl)-acetamide]
